Data published in the supplement of paper PMC10307832.

Assays:
Assay in all cases: relative viability (nuclei count vs DMSO), 5 days (fraction); higher = more cells survive
[1] = compound: CC(C)=CC[C@@H](O)C1=CC(=O)c2c(O)ccc(O)c2C1=O [Shikonin] + CC(=O)Nc1cccc(-n2c(=O)n(C3CC3)c(=O)c3c(Nc4ccc(I)cc4F)n(C)c(=O)c(C)c32)c1 [Trametinib] (partner 0.02 µM)
Outline: (§1)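 Lung cancer cell lines, seeded in 1536-well plates, were treated the following day by pin tool with a single drug or with five library-drug doses (not always all listed) in √10 steps on top of a fixed anchor-drug dose. Cells were fixed and nuclei stained in one step after 5 days, and nuclei were counted. Relative viability is the nuclei count for treated wells divided by that for vehicle wells, reported as medians of duplicate plates.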

[2] = compound: CC(C)N(CCCNC(=O)Nc1ccc(C(C)(C)C)cc1)C[C@H]1O[C@@H](n2ccc3c(N)ncnc32)[C@H](O)[C@@H]1O + CC1(C)CCC(c2ccc(Cl)cc2)=C(CN2CCN(c3ccc(C(=O)NS(=O)(=O)c4ccc(N[C@H](CCN5CCOCC5)CSc5ccccc5)c(S(=O)(=O)C(F)(F)F)c4)cc3)CC2)C1 [Navitoclax] (partner 0.5 µM)
Outline: as §1

[3] = compound: CC(C)=CC[C@@H](O)C1=CC(=O)c2c(O)ccc(O)c2C1=O [Shikonin] + N=C(N)NC(=N)NCCc1ccccc1 [Phenformin] (partner 250 µM)
Outline: as §1

[4] = compound: CC(C)=CC[C@@H](O)C1=CC(=O)c2c(O)ccc(O)c2C1=O [Shikonin] + Nc1ncn([C@H]2C[C@H](O)[C@@H](CO)O2)c(=O)n1 [Decitabine] (partner 2 µM)
Outline: as §1

Cell Line	relative viability ([1]; first compound 0.01 µM)	relative viability ([1]; first compound 0.1 µM)	relative viability ([1]; first compound 0.3162 µM)	relative viability ([1]; first compound 1 µM)	relative viability ([2]; first compound 0.08 µM)	relative viability ([2]; first compound 0.253 µM)	relative viability ([2]; first compound 2.53 µM)	relative viability ([2]; first compound 8 µM)	relative viability ([3]; first compound 0.01 µM)	relative viability ([3]; first compound 0.1 µM)	relative viability ([3]; first compound 0.3162 µM)	relative viability ([3]; first compound 1 µM)	relative viability ([4]; first compound 0.01 µM)	relative viability ([4]; first compound 0.1 µM)	relative viability ([4]; first compound 0.3162 µM)	relative viability ([4]; first compound 1 µM)	relative viability ([2]; first compound 0.8 µM)
NCI-H1355	0.405	0.42	0.424	0.395	0.854	0.909	0.911	0.935	0.438	0.483	0.46	0.476	0.339	0.4	0.38	0.337	–
HOP-62	0.389	0.374	0.394	0.401	0.89	1.07	0.929	1.03	0.762	0.694	0.744	0.723	0.24	0.222	0.205	0.212	0.846
NCI-H2087	0.198	0.194	0.189	0.18	1.04	1.11	1.14	0.989	0.458	0.484	0.447	0.463	0.283	0.263	0.278	0.294	0.896
